Measurements as given in patent US10253002B2, “Compounds and methods of treating infections” (Neoculi Pty Ltd., priority 2013, dated 2019).
Where “and” joins values, the source holds several entries; their conditions need not be identical. Identical values can stand only once.

Key:
Test in all cases: Broth microdilution MIC, Example 7 (NCL812 and analogues)
VRE = type: cell-based, Enterococcus spp.; details: for MIC (μg/ml) at 24 hours, VRE 1: isolate VRE 1; for MIC (μg/ml) at 24 hours, VRE 1 / MIC (μg/ml) at 24 hours, VRE 2: 1st and 2nd replicate rows; for MIC (μg/ml) at 24 hours, VRE 2: isolate VRE 2; for activity against VRE among analogues: MIC testing, two VRE strains; for VRE: bioassay ranking
Method: (§1) Minimum inhibitory concentrations (μg/ml) were determined using the broth microdilution method recommended by the Clinical and Laboratory Standards Institute (CLSI). MIC breakpoints were determined by visual assessment and then confirmed using an ELISA plate reader, measuring absorbance levels at 600 nm. Bacterial growth (turbidity) in the wells with antimicrobial was compared with the amount of growth (turbidity) in the growth-control well (containing no antimicrobial). All isolates were tested in duplicate, if there was a difference of greater than one two-fold dilution in the results, the test was repeated a third time. The purity of the isolates was closely monitored during testing by subculturing the prepared bacterial inoculum onto SBA (sheep blood agar). […] The MIC50, MIC20 and MIC range (minimum and maximum) were calculated for each of the bacterial groups.
(§2) MICs were determined against two MRSA strains, two VRE strains and one strain each of E. coli and Pseudomonas aeruginosa.

MRSA = type: cell-based, Staphylococcus aureus; details: for MIC (μg/ml) at 24 hours, MRSA 1: isolate MRSA 1; for MIC (μg/ml) at 24 hours, MRSA 1 / MIC (μg/ml) at 24 hours, MRSA 2: 1st and 2nd replicate rows; for MIC (μg/ml) at 24 hours, MRSA 2: isolate MRSA 2; for activity against MRSA among analogues: MIC testing, two MRSA strains
Method: as §1, §2

Pseudomonas aeruginosa = type: cell-based; details: 24 hours; 1st and 2nd replicate rows
Escherichia coli = type: cell-based; details: 24 hours; 1st and 2nd replicate rows

| Compound | activity against VRE among analogues (VRE) | activity against MRSA among analogues (MRSA) | further results |
| --- | --- | --- | --- |
| O=C(N/N=C/c1ccc(Cl)cc1)N/N=C/c1ccc(Cl)cc1 [NCL001] | – | – | MIC (μg/ml) at 24 hours, VRE 1 (VRE): >128 µg/mL; MIC (μg/ml) at 24 hours, VRE 2 (VRE): >128 µg/mL; MIC (μg/ml) at 24 hours, MRSA 1 (MRSA): >128 µg/mL; MIC (μg/ml) at 24 hours, MRSA 2 (MRSA): >128 µg/mL; MIC (μg/ml) at 24 hours, P. aeruginosa (Pseudomonas aeruginosa): >128 µg/mL; MIC (μg/ml) at 24 hours, E. coli (Escherichia coli): >128 µg/mL and >126 µg/mL |
| O=C(N/N=C/c1ccccc1Cl)N/N=C/c1ccccc1Cl [NCL002] | – | – | MIC (μg/ml) at 24 hours, VRE 1 (VRE): >128 µg/mL; MIC (μg/ml) at 24 hours, VRE 2 (VRE): >128 µg/mL; MIC (μg/ml) at 24 hours, MRSA 1 (MRSA): >128 µg/mL; MIC (μg/ml) at 24 hours, MRSA 2 (MRSA): >128 µg/mL; MIC (μg/ml) at 24 hours, P. aeruginosa (Pseudomonas aeruginosa): >128 µg/mL; MIC (μg/ml) at 24 hours, E. coli (Escherichia coli): >128 µg/mL |
| O=C(N/N=C/c1ccc(F)cc1)N/N=C/c1ccc(F)cc1 [NCL003] | – | – | MIC (μg/ml) at 24 hours, VRE 1 (VRE): >128 µg/mL; MIC (μg/ml) at 24 hours, VRE 2 (VRE): >128 µg/mL; MIC (μg/ml) at 24 hours, MRSA 1 (MRSA): >128 µg/mL; MIC (μg/ml) at 24 hours, MRSA 2 (MRSA): >128 µg/mL; MIC (μg/ml) at 24 hours, P. aeruginosa (Pseudomonas aeruginosa): >128 µg/mL; MIC (μg/ml) at 24 hours, E. coli (Escherichia coli): >128 µg/mL |
| O=C(N/N=C/c1cccc(F)c1)N/N=C/c1cccc(F)c1 [NCL004] | – | – | MIC (μg/ml) at 24 hours, VRE 1 (VRE): >128 µg/mL; MIC (μg/ml) at 24 hours, VRE 2 (VRE): >128 µg/mL; MIC (μg/ml) at 24 hours, MRSA 1 (MRSA): >128 µg/mL; MIC (μg/ml) at 24 hours, MRSA 2 (MRSA): >128 µg/mL; MIC (μg/ml) at 24 hours, P. aeruginosa (Pseudomonas aeruginosa): >128 µg/mL; MIC (μg/ml) at 24 hours, E. coli (Escherichia coli): >128 µg/mL |
| O=C(N/N=C/c1ccccc1F)N/N=C/c1ccccc1F [NCL005] | – | – | MIC (μg/ml) at 24 hours, VRE 1 (VRE): >128 µg/mL; MIC (μg/ml) at 24 hours, VRE 2 (VRE): >128 µg/mL; MIC (μg/ml) at 24 hours, MRSA 1 (MRSA): >128 µg/mL; MIC (μg/ml) at 24 hours, MRSA 2 (MRSA): >128 µg/mL; MIC (μg/ml) at 24 hours, P. aeruginosa (Pseudomonas aeruginosa): >128 µg/mL; MIC (μg/ml) at 24 hours, E. coli (Escherichia coli): >128 µg/mL |
| COc1ccc(/C=N/NC(=O)N/N=C/c2ccc(OC)cc2)cc1 [NCL006] | – | – | MIC (μg/ml) at 24 hours, VRE 1 (VRE): >128 µg/mL; MIC (μg/ml) at 24 hours, VRE 2 (VRE): >128 µg/mL; MIC (μg/ml) at 24 hours, MRSA 1 (MRSA): >128 µg/mL; MIC (μg/ml) at 24 hours, MRSA 2 (MRSA): >128 µg/mL; MIC (μg/ml) at 24 hours, P. aeruginosa (Pseudomonas aeruginosa): >128 µg/mL; MIC (μg/ml) at 24 hours, E. coli (Escherichia coli): >128 µg/mL |
| N#Cc1ccc(/C=N/NC(=O)N/N=C/c2ccc(C#N)cc2)cc1 [NCL007] | – | – | MIC (μg/ml) at 24 hours, VRE 1 (VRE): >128 µg/mL; MIC (μg/ml) at 24 hours, VRE 2 (VRE): >128 µg/mL; MIC (μg/ml) at 24 hours, MRSA 1 (MRSA): >128 µg/mL; MIC (μg/ml) at 24 hours, MRSA 2 (MRSA): >128 µg/mL; MIC (μg/ml) at 24 hours, P. aeruginosa (Pseudomonas aeruginosa): >128 µg/mL; MIC (μg/ml) at 24 hours, E. coli (Escherichia coli): >128 µg/mL |
| COc1cc(/C=N/NC(=N)N/N=C/c2ccc(O)c(OC)c2)ccc1O.Cl [NCL117] | greatest activity | greatest activity | – |
| C#Cc1cccc(C=NNC(=N)NN=Cc2cccc(C#C)c2)c1.Cl [NCL126] | greatest activity | – | – |
| Cl.N=C(NN=Cc1cccc(Br)c1)NN=Cc1cccc(Br)c1 [NCL131] | greatest activity | – | – |
| CCCCc1ccc(C=NNC(=N)NN=Cc2ccc(CCCC)cc2)cc1.Cl [NCL136] | greatest activity | greatest activity | – |
| Cl.N=C(NN=CC(=Cc1ccccc1)c1ccccc1)NN=CC(=Cc1ccccc1)c1ccccc1 [NCL138] | – | greatest activity | – |
| CSc1ccc(C=NNC(=N)NN=Cc2ccc(SC)cc2)cc1.Cl [NCL140] | greatest activity | greatest activity | VRE (VRE): 5 µg/mL |
| Cl.N=C(NN=Cc1csc2ccc(Cl)cc12)NN=Cc1csc2ccc(Cl)cc12 [NCL141] | greatest activity | – | – |
| COc1ccc(C=CC=NNC(=N)NN=CC=Cc2ccc(OC)cc2)cc1.Cl [NCL150] | – | greatest activity | – |
| Cl.N=C(NN=Cc1ccc(O)cc1)NN=Cc1ccc(O)cc1 [NCL151] | greatest activity | greatest activity | – |
| Cl.N=C(NN=C(c1ccc(Cl)cc1O)C1CCCC1)NN=C(c1ccc(Cl)cc1O)C1CCCC1 [NCL159] | greatest activity | greatest activity | – |

| Compound | activity against VRE among analogues (VRE) | activity against MRSA among analogues (MRSA) | further results |
| --- | --- | --- | --- |
| Cl.N=C(NN=Cc1ccc(OC(F)(F)F)cc1)NN=Cc1ccc(OC(F)(F)F)cc1 [NCL160] | greatest activity | greatest activity | – |
| CC(=NNC(=N)NN=C(C)c1ccc(N2CCNCC2)cc1)c1ccc(N2CCNCC2)cc1.Cl [NCL161] | greatest activity | greatest activity | – |
| Cl.N=C(NN=Cc1ccc(SC(F)(F)F)cc1)NN=Cc1ccc(SC(F)(F)F)cc1 [NCL166] | greatest activity | greatest activity | – |
| CC(=NNC(=N)NN=C(C)c1ccccn1)c1ccccn1.Cl [NCL172] | – | greatest activity | – |
| Cl.N=C(N/N=C/c1ccc(Cl)nc1)N/N=C/c1ccc(Cl)nc1 [NCL175] | greatest activity | – | – |
| C/C(=N\Nc1cc(N/N=C(\C)c2ccc(Cl)cc2)ncn1)c1ccc(Cl)cc1 [NCL178] | greatest activity | greatest activity | – |
| OC/C(=N\Nc1cc(N/N=C(\CO)c2ccc(Cl)cc2)ncn1)c1ccc(Cl)cc1 [NCL180] | greatest activity | greatest activity | VRE (VRE): 32 µg/mL |
| Clc1ccc(/C=N/Nc2cc(N/N=C/c3ccc(Cl)cc3)ncn2)cc1 [NCL181] | greatest activity | greatest activity | – |
| CC(Nc1cc(Cl)nc(N)n1)c1ccccc1 (centres unmarked) [NCL182] | greatest activity | greatest activity | – |
| CC(Nc1cc(NC(C)c2ccccc2)ncn1)c1ccccc1 (centres unmarked) [NCL183] | greatest activity | greatest activity | – |
| CC(Nc1cc(NC(C)c2ccccc2)nc(N)n1)c1ccccc1 (centres unmarked) [NCL184] | greatest activity | greatest activity | VRE (VRE): 32 µg/mL |
| C/C(=N\Nc1cc(N/N=C(\C)c2ccc(Cl)cc2)ncn1)c1ccc(Cl)cc1.Cl [NCL185] | greatest activity | greatest activity | – |
| CC(Nc1cnc(NC(C)c2ccc(Cl)cc2)cn1)c1ccc(Cl)cc1 (centres unmarked) [NCL186] | greatest activity | greatest activity | – |
| Cl.Clc1ccc(/C=N/Nc2cc(N/N=C/c3ccc(Cl)cc3)ncn2)cc1 [NCL187] | greatest activity | greatest activity | – |
| Cl.OC/C(=N\Nc1cc(N/N=C(\CO)c2ccc(Cl)cc2)ncn1)c1ccc(Cl)cc1 [NCL189] | greatest activity | greatest activity | – |
| C/C(=N\NC(=N)N)c1ccc(Cl)cc1.Cl [NCL191] | greatest activity | greatest activity | – |
| Cl.N=C(N)NN=C(C(=O)O)c1ccccc1 [NCL192] | greatest activity | greatest activity | – |
